The values that follow are results of earlier work, collected in patent US20250215053A1, “LYSINE RICH CELL-PENETRATING PEPTIDES” (OXFORD UNIVERSITY INNOVATION LIMITED, priority 2022, published 2025).

The data set relates to dystrophin. As to conditions: in vivo.

Turning to eteplirsen, the dystrophin restoration entry is on record as “approximately 1 % of normal dystrophin levels”.
